Converted amounts (≈) assume the structure as drawn.
Experiments:
physchem [1] = assay: physchem
physchem [2] = assay: physchem; remark: listed apart in the source
[3] = Solubility of various drugs: effect of CMC in aqueous HPβCD solutions (Example 1); conditions: for S4 /S3: 0.25% CMC + 10% HPβCD vs 10% HPβCD
[4] = Effect of PVP on the solubilization of drugs in aqueous HPβCD solutions (Example 7); conditions: for S4 /S3: with vs without 0.25% PVP
physchem [5] = assay: physchem; remark: listed apart in the source
Experimental: An excess amount of the compound to be tested was added to each solvent and the suspensions which formed were heated in sealed containers to 120° C. The solubility of salicylic acid was determined in acidic (HCl) solution.

physchem [6] = conditions: 10% heβcd
physchem [7] = assay: physchem; remark: listed apart in the source
[8] = HPβCD with CMC / HPβCD without polymer (S6)
[9] = HPβCD with HPMC / HPβCD without polymer (S8)
[10] = HPβCD with PVP / HPβCD without polymer (S7)

Row | Structure (SMILES) | solubility (physchem [1]; 0.25% cmc + 10% hpbetacd) [µg/mL] | solubility (physchem [1]; aqueous 0.25% cmc) [µg/mL] | solubility (physchem [1]; aqueous 10% hpbetacd) [µg/mL] | solubility (physchem [1]; water) [µg/mL] | solubility at 72 h (physchem [2]; 0.25% pvp, 10% hpβcd) [µg/mL] | solubility at 72 h (physchem [2]; 10% hpβcd ms 0.7) [µg/mL] | solubility at 72 h (physchem [2]; aqueous 0.25% pvp) [µg/mL] | solubility at 72 h (physchem [2]; water) [µg/mL] | S4 /S3 [3] | solubility ratio (physchem [5]; [8]) | solubility ratio (physchem [5]; [9]) | further results
1 | CCOc1ccc2nc(S(N)(=O)=O)sc2c1 [Ethoxyzolamide] | 1660 | 70 (≈ 0.271 mM) | 1190 (≈ 4.61 mM) | 40 (≈ 0.155 mM) | 2720 (≈ 10.5 mM) | 1360 (≈ 5.26 mM) | 60 (≈ 0.232 mM) | 40 (≈ 0.155 mM) | 1.39 | – | – | S4 /S3 [4]: 2.00
2 | CN(C)c1ccc(N=Nc2ccccc2)cc1 [Methylyellow] | – | – | – | – | – | – | – | – | – | 1.04 | 1.09 | solubility (physchem [5]; 0.25% hpmc + 10% hpβcd): 250 µg/mL; solubility (physchem [5]; 0.25% pvp + 10% hpβcd): 240 µg/mL; solubility ratio (physchem [5]; [10]): 1.04; solubility (physchem [5]; aqueous 0.25% cmc): 0.85 µg/mL (≈ 0.00377 mM); solubility (physchem [5]; aqueous 0.25% cmc, 10% hpβcd): 240 µg/mL (≈ 1.07 mM); solubility (physchem [5]; aqueous 0.25% hpmc): 0.75 µg/mL (≈ 0.00333 mM); solubility (physchem [5]; aqueous 0.25% pvp): 0.85 µg/mL (≈ 0.00377 mM); solubility (physchem [5]; aqueous 10% hpβcd): 230 µg/mL (≈ 1.02 mM); solubility (physchem [5]; water): 0.64 µg/mL (≈ 0.00284 mM)
3 | Clc1ccc(COC(Cn2ccnc2)c2ccc(Cl)cc2Cl)c(Cl)c1 (stereo not shown) [Miconazole, miconazole] | 2500 | 60 (≈ 0.144 mM) | 1980 (≈ 4.76 mM) | 40 (≈ 0.0961 mM) | 3400 (≈ 8.17 mM) | 2360 (≈ 5.67 mM) | 200 (≈ 0.481 mM) | 40 (≈ 0.0961 mM) | – | – | – | solubility at 72 h (physchem [6]; 0.25% cmc): 3310 µg/mL (≈ 7.95 mM); solubility at 72 h (physchem [6]): 2510 µg/mL (≈ 6.03 mM); solubility (physchem [7]; 0.25% cmc in water): 60 µg/mL (≈ 0.144 mM); solubility (physchem [7]; 0.25% cmc, 10% hpbcd): 2500 µg/mL (≈ 6.01 mM); solubility (physchem [7]; 10% ethanol in water, organic solvent or mixture): 310 µg/mL (≈ 0.745 mM); solubility (physchem [7]; 10% ethanol, 10% hpbcd, organic solvent or mixture): 2220 µg/mL (≈ 5.33 mM); solubility (physchem [7]; 10% hpbcd in water): 1980 µg/mL (≈ 4.76 mM); solubility (physchem [7]; ethanol, cmc, hpbcd, organic solvent or mixture): 12600 µg/mL (≈ 30.2 mM); solubility (physchem [7]; water): 40 µg/mL (≈ 0.0961 mM)
4 | C[C@]12C=CC(=O)C=C1CC[C@@H]1[C@@H]2[C@@H](O)C[C@@]2(C)[C@H]1CC[C@]2(O)C(=O)CO [Prednisolone, prednisolone] | 15300 | 530 (≈ 1.47 mM) | 13600 (≈ 37.7 mM) | 380 (≈ 1.05 mM) | – | – | – | – | 1.13 | – | – | –
5 | CC(=O)[C@H]1CC[C@H]2[C@@H]3CCC4=CC(=O)CC[C@]4(C)[C@H]3CC[C@]12C [Progesterone, progesterone] | – | – | – | – | – | – | – | – | 1.52 | – | – | solubility ([3]; 0.25% cmc + 10% hpbetacd): 6110 µg/mL; solubility ([3]; aqueous 10% hpbetacd): 4030 µg/mL (≈ 12.8 mM); solubility at 72 h ([4]; 0.25% pvp, 10% hpβcd): 5710 µg/mL (≈ 18.2 mM); solubility at 72 h ([4]; 10% hpβcd ms 0.7): 4760 µg/mL (≈ 15.1 mM); S4 /S3 [4]: 1.20
6 | O=C(O)c1ccccc1O [Salicylic acid] | – | – | – | – | – | – | – | – | – | 1.14 | 1.06 | solubility (physchem [5]; 10% hpβcd acidic hcl solution): 3710 µg/mL (≈ 26.9 mM); solubility ratio (physchem [5]; [10]): 1.10; solubility (physchem [5]; acidic hcl, cmc, hpβcd): 4230 µg/mL (≈ 30.6 mM); solubility (physchem [5]; hpmc/hpβcd acidic hcl solution): 3920 µg/mL (≈ 28.4 mM); solubility (physchem [5]; pvp/hpβcd acidic hcl solution): 4070 µg/mL (≈ 29.5 mM)
7 | CC1(C)O[C@@H]2C[C@H]3[C@@H]4CCC5=CC(=O)C=C[C@]5(C)[C@@]4(F)[C@@H](O)C[C@]3(C)[C@]2(C(=O)CO)O1 [Triamcinolone acetonide, triamcinolone acetonide] | 2580 | 70 (≈ 0.161 mM) | 2090 (≈ 4.81 mM) | 30 (≈ 0.069 mM) | – | – | – | – | – | – | – | –
8 | COc1cc(Cc2cnc(N)nc2N)cc(OC)c1OC [Trimethoprim] | – | – | – | – | 6470 (≈ 22.3 mM) | 2830 (≈ 9.75 mM) | 1350 (≈ 4.65 mM) | 820 (≈ 2.82 mM) | – | – | – | –
9 | COc1cc(C=O)ccc1O [Vanillin] | – | – | – | – | – | – | – | – | – | 1.09 | 1.06 | solubility (physchem [5]; 0.25% hpmc + 10% hpβcd): 26500 µg/mL; solubility (physchem [5]; aqueous 0.25% cmc): 13700 µg/mL (≈ 90 mM); solubility (physchem [5]; aqueous 0.25% cmc, 10% hpβcd): 27300 µg/mL (≈ 179 mM); solubility (physchem [5]; aqueous 0.25% hpmc): 17100 µg/mL (≈ 112 mM); solubility (physchem [5]; aqueous 0.25% pvp): 11500 µg/mL (≈ 75.6 mM); solubility (physchem [5]; aqueous 10% hpβcd): 25000 µg/mL (≈ 164 mM); solubility (physchem [5]; water): 13900 µg/mL (≈ 91.4 mM)
